Assay results reported in patent US12018058B2, “Compositions and methods for diagnosing and/or treating kidney injury” (Boston Medical Center Corporation, priority 2018, dated 2024).
Square brackets hold non-standard residues; d marks the D form. Peptide text beside a SMILES is read from it. βAla = NCCC(=O)O

System: NPM-Bax complex
Test: NPM-Bax complex formation, 6A7 Bax immunoprecipitation and NPM immunoblot in ischemic PTEC
Assay type: cell-based
Settings: ischemic primary murine PTEC; compared to size matched random peptide
Description: NPM is a relevant therapeutic target in human AKI. Primary human proximal tubule epithelial cells (PTEC) derived from cadaveric kidneys were subjected to ischemic stress (transient ATP depletion) in the presence of specific NPM siRNA or non-sense siRNA. […] Thus, manipulating NPM is an effective maneuver. […] Small peptides of 30 amino acids or less are sufficiently specific to minimize off target effects and also reduce the risk of eliciting an antibody response that causes tachyphylaxis. Peptides were commercially synthesized and fused to a nuclear localizing sequence (this NLS has no functional relationship to the “NPM NLS” that regulates NPM translocation). The NLS-CPP markedly increases renal accumulation of small peptides8 as well as in the proximal tubule. […] To determine its effect on NPM-Bax complex formation, active Bax was immunoprecipitated from PTEC rendered ischemic with an antibody directed against the 6A7 epitope. The precipitates were subjected to immunoblot analysis using an anti-NPM antibody. […] NPM and Bax accumulation was measured in mitochondria isolated from human PTEC after ischemic stress. […] This is likely due to the prolonged half-life (about 80 hr) of the peptide in vitro and in vivo due to the presence of an AC modification slows degradation.

Question: Which “Decrease of NPM-Bax complex formation” value does the source give for `CC[C@H](C)[C@H](NC(=O)[C@@H](NC(=O)[C@H](CC(C)C)NC(=O)[C@H](CO)NC(=O)[C@H](C)NC(=O)[C@@H](NC(=O)[C@H](CC(C)C)NC(=O)[C@@H](NC(=O)CNC(=O)[C@H](C)NC(=O)[C@@H](NC(=O)[C@H](Cc1ccccc1)NC(=O)[C@@H](NC(=O)[C@@H](NC(=O)[C@@H](NC(=O)[C@@H](NC(=O)CCNC(=O)[C@@H](NC(=O)[C@H](CCCCN)NC(=O)[C@H](CCCNC(=N)N)NC(=O)[C@H](CCCCN)NC(=O)[C@H](CCCCN)NC(=O)[C@H](CCCCN)NC(C)=O)C(C)C)[C@@H](C)O)C(C)C)[C@@H](C)O)[C@@H](C)CC)C(C)C)C(C)C)[C@@H](C)O)[C@@H](C)O)C(=O)N[C@@H](Cc1c[nH]c2ccccc12)C(=O)N[C@@H](CCCCN)C(=O)N[C@@H](CCCCN)C(=O)N[C@@H](CCSC)C(=O)NCC(=O)O` [Peptide #1] (Ac-KKKRKV[βAla]TVTIFVAGVLTASLTIWKKMG-OH) here?
Answer: about 50%
